Values of other authors as cited in patent publication US20090246264A1, “Transdermal Tobacco Alkaloid Patch” (Fertin Pharma, priority 2005, published 2009).

Settings: pure nicotine placed on the skin of an ordinary human being

CN1CCCC1c1cccnc1 (stereo not shown) [nicotine]
lethal dose: 50 mg
